Values quoted from earlier work in patent publication US20160151380A1, “THERAPIES FOR DISEASES CAUSED BY ARTHROPOD-BORNE PARASITES” (THE REGENTS OF THE UNIVERSITY OF CALIFORNIA, priority 2013, published 2016).

Assays:
JNK1 = JNK1 (Homo sapiens, UniProt P45983); details: cited from earlier work
PKCepsilon = target: T1, PKCepsilon (Homo sapiens, UniProt Q02156); details: cited from earlier work
T1 sequence (Q02156 1-737): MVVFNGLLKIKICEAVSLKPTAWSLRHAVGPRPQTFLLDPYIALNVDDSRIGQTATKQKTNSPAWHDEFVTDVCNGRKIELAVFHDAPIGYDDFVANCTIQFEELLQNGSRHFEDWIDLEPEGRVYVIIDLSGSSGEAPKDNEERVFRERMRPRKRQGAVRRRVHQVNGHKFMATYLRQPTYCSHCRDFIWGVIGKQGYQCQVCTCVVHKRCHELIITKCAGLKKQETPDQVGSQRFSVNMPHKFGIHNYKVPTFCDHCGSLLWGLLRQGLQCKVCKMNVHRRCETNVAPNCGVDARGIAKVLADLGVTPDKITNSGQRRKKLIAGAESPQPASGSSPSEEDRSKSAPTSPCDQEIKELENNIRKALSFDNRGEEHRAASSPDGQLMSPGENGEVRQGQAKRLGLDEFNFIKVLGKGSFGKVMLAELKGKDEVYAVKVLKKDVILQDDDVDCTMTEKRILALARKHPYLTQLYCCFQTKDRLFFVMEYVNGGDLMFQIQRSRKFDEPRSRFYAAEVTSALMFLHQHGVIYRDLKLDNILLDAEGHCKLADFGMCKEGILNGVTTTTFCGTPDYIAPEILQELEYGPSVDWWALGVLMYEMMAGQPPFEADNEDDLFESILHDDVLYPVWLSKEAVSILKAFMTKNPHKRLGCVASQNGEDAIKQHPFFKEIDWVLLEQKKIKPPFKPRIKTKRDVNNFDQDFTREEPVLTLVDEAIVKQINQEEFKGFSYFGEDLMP

Chain of JNK1 (P45983 whole entry, species assumed): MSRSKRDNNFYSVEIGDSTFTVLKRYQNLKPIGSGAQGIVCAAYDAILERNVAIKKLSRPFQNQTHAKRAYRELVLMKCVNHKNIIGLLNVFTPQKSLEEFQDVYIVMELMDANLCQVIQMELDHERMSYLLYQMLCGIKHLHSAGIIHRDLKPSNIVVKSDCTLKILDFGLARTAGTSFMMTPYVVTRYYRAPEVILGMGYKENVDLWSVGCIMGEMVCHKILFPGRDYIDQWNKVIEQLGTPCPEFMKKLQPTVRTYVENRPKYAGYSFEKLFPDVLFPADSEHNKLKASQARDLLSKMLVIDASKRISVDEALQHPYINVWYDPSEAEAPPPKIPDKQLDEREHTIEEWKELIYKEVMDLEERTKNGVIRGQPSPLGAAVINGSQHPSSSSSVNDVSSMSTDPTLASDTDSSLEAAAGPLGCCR

Compound | IC50 (PKCepsilon; PKCepsilon) | further results
N#CC(c1ccnc(NCCc2cccnc2)n1)c1nc2ccccc2s1 (stereo not drawn) [AS601245] | – | IC50 (JNK1): 150 nM
O=C1NC(=O)c2c1c1c3ccccc3[nH]c1c1[nH]c3ccccc3c21 [Arcyriaflavin A] | 310 nM | –
CC(C)(C)c1nc2c3cc[nH]c(=O)c3c3cc(F)ccc3c2[nH]1 [BCP9000906] | 500 nM | –
COc1cccc(Nc2ncnn3ccc(CN4CC[C@@H](N)[C@H](O)C4)c23)c1 [BMS-690514] | – | Kd (PKCepsilon; PKCepsilon): < 400 nM
CCS(=O)(=O)N1CC(CC#N)(n2cc(-c3ncnc4[nH]ccc34)cn2)C1 [Baricitinib] | – | IC50 (JNK1): > 1000 nM
O=C1NC(=O)C(c2c[nH]c3ccccc23)=C1c1c[nH]c2ccccc12 [Bisindolylmaleimide IV, 3,4-bis(1H-indol-3-yl)pyrrole-2,5-dione] | 190 nM | –
CN(C)CCCn1cc(C2=C(c3c[nH]c4ccccc34)C(=O)NC2=O)c2ccccc21 [Bisindolylmaleimide I] | < 25 nM | –
CCN1CCOCCn2cc(c3ccccc32)C2=C(C(=O)NC2=O)c2cn(c3ccccc23)CCOCC1 [CHEMBL103055] | 75 nM | –
O=C(OC1CCCC1Cc1ccc(O)cc1)c1cc(O)c(C(=O)c2c(O)cccc2C(=O)O)c(O)c1 (stereo not drawn) [CHEMBL295806] | 120 nM | –
N=C(N)SCCCn1c(-c2cc3ccccc3s2)c(C2=CC(=O)NC2=O)c2ccccc21 [CHEMBL350335] | 10 nM | –
Cc1c(Nc2c(C#N)cncc2/C=C/CCN2CCC[C@@H](N)C2)ccc2[nH]ccc12 [CHEMBL606245] | 14 nM | –
N#C/C(=C1/Nc2ccccc2S1)c1ccnc(NCCc2cccnc2)n1 [CHEMBL1788116] | – | IC50 (JNK1): 150 nM
COCCOc1ccc2c(c1)ncn2-c1ccc2cccc(N3CCC(N)CC3)c2n1 [CP673451] | – | IC50 (JNK1): > 1000 nM
COc1ccc2c(c1)c(C1=C(c3c[nH]c4ccccc34)C(=O)NC1=O)cn2CCCN(C)C [Go6983, 3-[1-[3-(dimethylamino)propyl]-5-methoxyindol-3-yl]-4-(1H-indol-3-yl)pyrrole-2,5-dione] | > 150 nM | –
Cc1cncc2cccc(S(=O)(=O)N3CCCN(C(=O)CN)C[C@@H]3C)c12 [H-1152; Glycyl] | 500 nM | –
NC(=O)Nc1sc(-c2ccc(F)cc2)cc1C(N)=O [IKK-2 Inhibitor IV] | – | Kd (JNK1): < 1250 nM
C#Cc1cccc(Nc2ncnc3cc4c(cc23)OCCOCCOCCO4)c1 [Icotinib] | > 1000 nM | –
CC(C)[C@H]1C(=O)N[C@H](CO)Cc2c[nH]c3cccc(c23)N1C [Indolactam V] | – | Ki (PKCepsilon): 7.7 nM
O=C(c1ccc(Nc2nccc(-c3cc4ccccc4s3)n2)cc1)N1CCC(N2CCCC2)CC1 [K00596a] | – | IC50 (JNK1): 100 nM
O=C1NC(=O)C(c2cn(CCCn3ccnc3)c3ccccc23)=C1Nc1ccccc1 [PKCb Inhibitor, 3-anilino-4-[1-(3-imidazol-1-ylpropyl)indol-3-yl]pyrrole-2,5-dione] | > 50 nM | –
O=C1Nc2ccc3ncsc3c2/C1=C/c1cnc[nH]1 [PKR Inhibitor] | > 150 nM | –
Nc1ncnc2c1c(-c1cnc3[nH]ccc3c1)nn2C1CCCC1 [PP121] | < 750 nM | –
Cn1cc(C2=C(c3cn(CCCSC(=N)N)c4ccccc34)C(=O)NC2=O)c2ccccc21 [Ro-31-8220, methanesulfonic acid; 3-[3-[4-(1-methylindol-3-yl)-2,5-dioxopyrrol-3-yl]indol-1-yl]propyl carbamimidothioate] | 10 nM | –
O=C1NC(=O)c2c1c1c3ccccc3n3c1c1c2c2ccccc2n1C1CCC3O1 [SB218078] | > 150 nM | –
C[C@@H](OC(=O)c1ccc2c(c1)OCCO2)C(=O)Nc1ccc(Cl)cc1Cl [SureCN2579964] | < 750 nM | –
CCc1cccc(OCCOCCN2CC(C)OC(C)C2)c1 (stereo not drawn) [SureCN2934634] | 1.6 nM | –
CC1CCCN(CCOCCOc2ccc(Cl)cc2C(C)(C)C)C1 (stereo not drawn) [SureCN2934911] | 36 nM | –
CCOC(=O)C(NC(=O)CCC(=O)OCC(=O)C1(O)CCC2C3CCC4=CC(=O)CCC4(C)C3C(O)CC21C)C(O)c1ccccc1 (stereo not drawn) [SureCN3774124] | 330 nM | –
COc1c(Br)cc(Br)cc1/C=N\Nc1nc(NCc2ccccc2)nc(N2CCOCC2)n1 [SureCN5757856] | 140 nM | –
Cdk1/2 Inhibitor III | > 50 nM | –
